Experimental data as given in patent publication US7018618B2, “Stable pharmaceutical solution formulations for pressurized metered dose inhalers” (Chiesi Farmaceutici S.p.A., priority 2000, dated 2006).

Legend:
Type in all cases: physicochemical
[1] = Stability of acidified formoterol/BDP-HFA 134a solutions in cans coated with a fluorocarbon polymer; conditions: HFA 134a/12% ethanol/0.4% isopropyl myristate, 3.25 μl 1.0 M HCl
Description: (§1) Each value is expressed as percent nominal drug concentration.

[2] = Stability of acidified TA 2005-HFA 134a solutions in cans coated with a fluorocarbon polymer
[3] = Effect of hydrochloric acid on solution pH′ (acidity function) in model vehicle HFA 43-10MEE (Vertrel XF); conditions: titrated with a strong acid in model vehicle HFA 43-10MEE (Vertrel XF)
Description: The meter reading represents an apparent pH or acidity function (pH′).
(a) 1.0 M hydrochloric acid was added incrementally to 50 mL of HFA 43-10MEE (Vertrel XF) containing 20% w/w ethanol and pH′ measured after each aliquot of acid.

[4] = Stability of acidified TA 2005-HFA 134a solutions in cans coated with a fluorocarbon polymer; conditions: for stability (in words): almost three months at 50° C.
Description: as §1

CCC(=O)OCC(=O)[C@@]1(OC(=O)CC)[C@@H](C)C[C@H]2[C@@H]3CCC4=CC(=O)C=C[C@]4(C)[C@@]3(Cl)[C@@H](O)C[C@@]21C [BDP, beclometasone dipropionate]
percent nominal drug concentration ([1]; 4° C., 64 days inverted): 100.10 percent nominal | percent nominal drug concentration ([1]; 4° C., 123 days inverted): 102.6 percent nominal | percent nominal drug concentration ([1]; Initial): 99.4 percent nominal

COc1ccc(C[C@@H](C)NC[C@H](O)c2ccc(O)c3[nH]c(=O)ccc23)cc1 [TA 2005, 8-hydroxy-5-[(1R)-1-hydroxy-2-[[(1R)-2-(4-methoxyphenyl)-1-methylethyl]amino]ethyl]-2(1H)-quinolinone]
apparent pH ([2]; 1.0 μl 0.08 M hydrochloric acid per can, 3.5 μg/50 μl in HFA 134a/12% ethanol/1.0% isopropyl myristate): about 4.8 | apparent pH ([2]; 1.4 μl 0.08 M hydrochloric acid per can): ~3.2 | apparent pH ([2]; 1.8 μl 0.08 M hydrochloric acid per can): ~2.9 | pH′ down to which the titration profile is shallow, thereafter the acidity function drops abruptly [3]: ~5.0 | percent nominal drug concentration ([4]; 1.0 μl 0.08 M HCl per can (apparent pH about 4.8), 50° C., 22 days upright): 98.3 percent nominal | percent nominal drug concentration ([4]; 1.0 μl 0.08 M HCl per can (apparent pH about 4.8), 50° C., 83 days upright): 99.4 percent nominal | percent nominal drug concentration ([4]; 1.0 μl 0.08 M HCl per can (apparent pH about 4.8), Initial, HFA 134a/12% ethanol/1.0% isopropyl myristate, coated cans): 100.0 percent nominal | percent nominal drug concentration ([4]; 1.4 μl 0.08 M HCl per can (apparent pH about 3.2), 50° C., 22 days upright): 98.2 percent nominal | percent nominal drug concentration ([4]; 1.4 μl 0.08 M HCl per can (apparent pH about 3.2), 50° C., 83 days upright): 98.8 percent nominal | percent nominal drug concentration ([4]; 1.4 μl 0.08 M HCl per can (apparent pH about 3.2), Initial): 100.0 percent nominal | percent nominal drug concentration ([4]; 1.8 μl 0.08 M HCl per can (apparent pH about 2.9), 50° C., 22 days upright): 90.2 percent nominal | percent nominal drug concentration ([4]; 1.8 μl 0.08 M HCl per can (apparent pH about 2.9), 50° C., 83 days upright): 88.1 percent nominal | percent nominal drug concentration ([4]; 1.8 μl 0.08 M HCl per can (apparent pH about 2.9), Initial): 100.0 percent nominal | stability (in words) ([4]; apparent pH between 3.0 and 5.0, stable = much less than 10% loss of drug): stable | stability (in words) ([4]; apparent pH of less than 3): not
